{"source": "paper PMC10722513", "assay": "Au(I)-catalysed intramolecular Trp C2-H alkynylation: peptide-EBX (4-ethynylbenzoyl bis-CF3-benziodoxole on Lys side chain or N-terminus) + AuCl·Me2S, open flask", "settings": "HFIP, 5.0 mM, 25.0 °C, 0.17 h"}
{"smiles": "CC[C@H](C)[C@@H]1NC(=O)[C@@H]2CCCN2C(=O)[C@H]([C@@H](C)CC)NC(=O)[C@@H]2CCCN2C(=O)[C@H](Cc2ccccc2)NC(=O)[C@H](C)NC(=O)c2ccc(cc2)C#Cc2[nH]c3ccccc3c2C[C@@H](C(N)=O)NC1=O", "note": "[EBX-A-F-P-I-P-I-W-NH2]", "values": [{"measurement": "ring closure, isolated yield", "setting": "from CC[C@H](C)[C@H](NC(=O)[C@@H]1CCCN1C(=O)[C@@H](NC(=O)[C@@H]1CCCN1C(=O)[C@H](Cc1ccccc1)NC(=O)[C@H](C)NC(=O)c1ccc(C#CI2OC(C(F)(F)F)(C(F)(F)F)c3ccccc32)cc1)[C@@H](C)CC)C(=O)N[C@@H](Cc1c[nH]c2ccccc12)C(N)=O, 30-membered ring", "value": 53, "unit": "%"}]}
{"smiles": "CC(=O)N[C@@H](CCC(=O)O)C(=O)N[C@H](C(=O)N[C@@H](Cc1ccccc1)C(=O)N[C@H]1CCCCNC(=O)c2ccc(cc2)C#Cc2[nH]c3ccccc3c2C[C@@H](C(=O)N[C@@H](C)C(=O)N[C@@H](CC(C)C)C(=O)N[C@@H](CC(C)C)C(=O)N[C@@H](Cc2c[nH]c3ccccc23)C(N)=O)NC(=O)[C@H](CC(C)C)NC(=O)[C@H](CC(=O)O)NC1=O)[C@@H](C)O", "note": "[Ac-E-T-F-K(EBX)-D-L-W-A-L-L-W-NH2]", "values": [{"measurement": "ring closure, isolated yield", "setting": "from CC(=O)N[C@@H](CCC(=O)O)C(=O)N[C@H](C(=O)N[C@@H](Cc1ccccc1)C(=O)N[C@@H](CCCCNC(=O)c1ccc(C#CI2OC(C(F)(F)F)(C(F)(F)F)c3ccccc32)cc1)C(=O)N[C@@H](CC(=O)O)C(=O)N[C@@H](CC(C)C)C(=O)N[C@@H](Cc1c[nH]c2ccccc12)C(=O)N[C@@H](C)C(=O)N[C@@H](CC(C)C)C(=O)N[C@@H](CC(C)C)C(=O)N[C@@H](Cc1c[nH]c2ccccc12)C(N)=O)[C@@H](C)O, 25-membered ring", "value": 37, "unit": "%"}]}
{"smiles": "C#CC[C@@H]1NC(=O)[C@@H](NC(C)=O)CCCCNC(=O)c2ccc(cc2)C#Cc2[nH]c3ccccc3c2C[C@@H](C(=O)O)NC(=O)[C@H](Cc2ccccc2)NC(=O)[C@H](C)NC1=O", "note": "[Ac-K(EBX)-Pra-A-F-W-OH]", "values": [{"measurement": "ring closure, isolated yield", "setting": "from C#CC[C@H](NC(=O)[C@H](CCCCNC(=O)c1ccc(C#CI2OC(C(F)(F)F)(C(F)(F)F)c3ccccc32)cc1)NC(C)=O)C(=O)N[C@@H](C)C(=O)N[C@@H](Cc1ccccc1)C(=O)N[C@@H](Cc1c[nH]c2ccccc12)C(=O)O, 28-membered ring", "value": 57, "unit": "%"}]}
{"smiles": "CC(=O)N[C@H]1CCCCNC(=O)c2ccc(cc2)C#Cc2[nH]c3ccccc3c2C[C@@H](C(=O)O)NC(=O)[C@H](Cc2ccccc2)NC(=O)[C@H](C)NC(=O)[C@H](CCC(=O)O)NC1=O", "note": "[Ac-K(EBX)-E-A-F-W-OH]", "values": [{"measurement": "ring closure, isolated yield", "setting": "from CC(=O)N[C@@H](CCCCNC(=O)c1ccc(C#CI2OC(C(F)(F)F)(C(F)(F)F)c3ccccc32)cc1)C(=O)N[C@@H](CCC(=O)O)C(=O)N[C@@H](C)C(=O)N[C@@H](Cc1ccccc1)C(=O)N[C@@H](Cc1c[nH]c2ccccc12)C(=O)O, 28-membered ring", "value": 37, "unit": "%"}]}
{"smiles": "CC(=O)N[C@H](C(=O)N[C@@H](CO)C(=O)N[C@@H](Cc1ccccc1)C(=O)N[C@H]1CCCCNC(=O)c2ccc(cc2)C#Cc2[nH]c3ccccc3c2C[C@@H](C(=O)N[C@@H](C)C(=O)N[C@@H](CC(C)C)C(=O)N[C@@H](CC(C)C)C(=O)N[C@@H](Cc2c[nH]c3ccccc23)C(N)=O)NC(=O)[C@H](Cc2ccc(O)cc2)NC(=O)[C@H](CCC(=O)O)NC1=O)[C@@H](C)O", "note": "[Ac-T-S-F-K(EBX)-E-Y-W-A-L-L-W-NH2]", "values": [{"measurement": "ring closure, isolated yield", "setting": "from CC(=O)N[C@H](C(=O)N[C@@H](CO)C(=O)N[C@@H](Cc1ccccc1)C(=O)N[C@@H](CCCCNC(=O)c1ccc(C#CI2OC(C(F)(F)F)(C(F)(F)F)c3ccccc32)cc1)C(=O)N[C@@H](CCC(=O)O)C(=O)N[C@@H](Cc1ccc(O)cc1)C(=O)N[C@@H](Cc1c[nH]c2ccccc12)C(=O)N[C@@H](C)C(=O)N[C@@H](CC(C)C)C(=O)N[C@@H](CC(C)C)C(=O)N[C@@H](Cc1c[nH]c2ccccc12)C(N)=O)[C@@H](C)O, 25-membered ring", "value": 45, "unit": "%"}]}
{"smiles": "CC(=O)N[C@H]1CCCCNC(=O)c2ccc(cc2)C#Cc2[nH]c3ccccc3c2C[C@@H](C(=O)O)NC(=O)[C@H](Cc2ccccc2)NC(=O)[C@H](C)NC(=O)[C@H](CO)NC1=O", "note": "[Ac-K(EBX)-S-A-F-W-OH]", "values": [{"measurement": "ring closure, isolated yield", "setting": "from CC(=O)N[C@@H](CCCCNC(=O)c1ccc(C#CI2OC(C(F)(F)F)(C(F)(F)F)c3ccccc32)cc1)C(=O)N[C@@H](CO)C(=O)N[C@@H](C)C(=O)N[C@@H](Cc1ccccc1)C(=O)N[C@@H](Cc1c[nH]c2ccccc12)C(=O)O, 28-membered ring", "value": 67, "unit": "%"}]}
{"smiles": "N=C(N)NCCC[C@@H]1NC(=O)[C@H](CCCNC(=N)N)NC(=O)[C@H](CCCNC(=N)N)NC(=O)[C@H](CCCNC(=N)N)NC(=O)[C@H](Cc2ccc3ccccc3c2)NC(=O)[C@H](Cc2ccccc2)NC(=O)c2ccc(cc2)C#Cc2[nH]c3ccccc3c2C[C@@H](C(N)=O)NC1=O", "note": "[EBX-F-Nal(2)-R-R-R-R-W-NH2]", "values": [{"measurement": "ring closure, isolated yield", "setting": "from N=C(N)NCCC[C@H](NC(=O)[C@H](CCCNC(=N)N)NC(=O)[C@H](CCCNC(=N)N)NC(=O)[C@H](CCCNC(=N)N)NC(=O)[C@H](Cc1ccc2ccccc2c1)NC(=O)[C@H](Cc1ccccc1)NC(=O)c1ccc(C#CI2OC(C(F)(F)F)(C(F)(F)F)c3ccccc32)cc1)C(=O)N[C@@H](Cc1c[nH]c2ccccc12)C(N)=O, 30-membered ring", "value": 57, "unit": "%"}]}
{"smiles": "C[C@@H]1NC(=O)[C@H](CC(=O)O)NC(=O)CNC(=O)c2ccc(cc2)C#Cc2c(c3ccccc3n2C)C[C@@H](C(N)=O)NC(=O)[C@H](CCC(=O)O)NC(=O)CNC(=O)[C@H]([C@@H](C)O)NC(=O)[C@H](CCC(=O)O)NC1=O", "note": "[EBX-G-D-A-E-T-G-E-W(1-Me)-NH2]", "values": [{"measurement": "ring closure, isolated yield", "setting": "from C[C@H](NC(=O)[C@H](CC(=O)O)NC(=O)CNC(=O)c1ccc(C#CI2OC(C(F)(F)F)(C(F)(F)F)c3ccccc32)cc1)C(=O)N[C@@H](CCC(=O)O)C(=O)N[C@H](C(=O)NCC(=O)N[C@@H](CCC(=O)O)C(=O)N[C@@H](Cc1cn(C)c2ccccc12)C(N)=O)[C@@H](C)O, 33-membered ring", "value": 61, "unit": "%"}]}
